Source: ChEMBL document CHEMBL4706768, “Discovery of Potent, Selective Triazolothiadiazole-Containing c-Met Inhibitors” (ACS Med Chem Lett, 2021)

How the values were obtained:
[1] = biological target: Fibroblast growth factor receptor 3 (Homo sapiens) (UniProt P22607); assay: Inhibition of recombinant human N-terminal His6-tagged FGFR3 (447 to 761 residues) expressed in Sf21 insect cells at 2 uM using poly (Glu,Tyr) (4:1) as substrate relative to control
[2] = biological target: Proto-oncogene tyrosine-protein kinase receptor Ret (Homo sapiens) (UniProt P07949); assay: Inhibition of recombinant human N-terminal GST-tagged RET (658 to end residues) expressed in baculovirus infected Sf21 insect cells at 2 uM using IFG1Rtide as substrate relative to control
[3] = biological target: Serine/threonine-protein kinase 3 (Homo sapiens) (UniProt Q13188); assay: Inhibition of recombinant human N-terminal His6-tagged MST2 (2 to end residues) expressed in baculovirus infected Sf21 insect cells at 2 uM using MBP as substrate relative to control
[4] = biological target: Cyclin-dependent kinase 5/CDK5 activator 1 (Homo sapiens) (UniProt Q00535+Q15078); assay: Inhibition of recombinant N-terminal His6-tagged human full-length CDK5/N-terminal GST-tagged full-length p35 expressed in baculovirus infected Sf21 insect cells at 2 uM using Histone H1 as substrate relative to control
[5] = biological target: Dual specificity mitogen-activated protein kinase kinase 6 (Homo sapiens) (UniProt P52564); assay: Inhibition of recombinant human N-terminal MBP-tagged MKK6 (4 to end residues) expressed in Escherichia coli at 2 uM using p38alpha/SAPK2a.as substrate relative to control
[6] = biological target: Tyrosine-protein kinase Lck (Homo sapiens) (UniProt P06239); assay: Inhibition of recombinant human full-length N-terminal His6-tagged LCK expressed in baculovirus infected Sf21 insect cells at 2 uM relative to control
[7] = biological target: Platelet-derived growth factor receptor alpha (Homo sapiens) (UniProt P16234); assay: Inhibition of recombinant human N-terminal His6-tagged PDGFRalpha (550 to end residues) expressed in baculovirus infected Sf21 insect cells at 2 uM using poly (Glu4-Tyr) (4:1) as substrate relative to control
[8] = Inhibition of GSK3 (unknown origin); parameters: species or system Homo sapiens
[9] = biological target: Serine/threonine-protein kinase Chk1 (Homo sapiens) (UniProt O14757); assay: Inhibition of recombinant human N-terminal GST-tagged full-length CHK1 expressed in Sf21 insect cells at 2 uM using CHKtide as substrate relative to control
[10] = biological target: Tyrosine-protein kinase ZAP-70 (Homo sapiens) (UniProt P43403); assay: Inhibition of recombinant human full-length C-terminal His6-tagged ZAP70 expressed in Sf21 insect cells at 2 uM using poly (Glu4-Tyr) (4:1) as substrate relative to control
[11] = biological target: Vascular endothelial growth factor receptor 1 (Homo sapiens) (UniProt P17948); assay: Inhibition of recombinant human N-terminal GST-tagged FLT1 (783 to end residues) expressed in baculovirus infected Sf21 insect cells at 2 uM using KKKSPGEYVNIEFG as substrate relative to control
Chain of Vascular endothelial growth factor receptor 1 (Homo sapiens) (P17948 whole entry): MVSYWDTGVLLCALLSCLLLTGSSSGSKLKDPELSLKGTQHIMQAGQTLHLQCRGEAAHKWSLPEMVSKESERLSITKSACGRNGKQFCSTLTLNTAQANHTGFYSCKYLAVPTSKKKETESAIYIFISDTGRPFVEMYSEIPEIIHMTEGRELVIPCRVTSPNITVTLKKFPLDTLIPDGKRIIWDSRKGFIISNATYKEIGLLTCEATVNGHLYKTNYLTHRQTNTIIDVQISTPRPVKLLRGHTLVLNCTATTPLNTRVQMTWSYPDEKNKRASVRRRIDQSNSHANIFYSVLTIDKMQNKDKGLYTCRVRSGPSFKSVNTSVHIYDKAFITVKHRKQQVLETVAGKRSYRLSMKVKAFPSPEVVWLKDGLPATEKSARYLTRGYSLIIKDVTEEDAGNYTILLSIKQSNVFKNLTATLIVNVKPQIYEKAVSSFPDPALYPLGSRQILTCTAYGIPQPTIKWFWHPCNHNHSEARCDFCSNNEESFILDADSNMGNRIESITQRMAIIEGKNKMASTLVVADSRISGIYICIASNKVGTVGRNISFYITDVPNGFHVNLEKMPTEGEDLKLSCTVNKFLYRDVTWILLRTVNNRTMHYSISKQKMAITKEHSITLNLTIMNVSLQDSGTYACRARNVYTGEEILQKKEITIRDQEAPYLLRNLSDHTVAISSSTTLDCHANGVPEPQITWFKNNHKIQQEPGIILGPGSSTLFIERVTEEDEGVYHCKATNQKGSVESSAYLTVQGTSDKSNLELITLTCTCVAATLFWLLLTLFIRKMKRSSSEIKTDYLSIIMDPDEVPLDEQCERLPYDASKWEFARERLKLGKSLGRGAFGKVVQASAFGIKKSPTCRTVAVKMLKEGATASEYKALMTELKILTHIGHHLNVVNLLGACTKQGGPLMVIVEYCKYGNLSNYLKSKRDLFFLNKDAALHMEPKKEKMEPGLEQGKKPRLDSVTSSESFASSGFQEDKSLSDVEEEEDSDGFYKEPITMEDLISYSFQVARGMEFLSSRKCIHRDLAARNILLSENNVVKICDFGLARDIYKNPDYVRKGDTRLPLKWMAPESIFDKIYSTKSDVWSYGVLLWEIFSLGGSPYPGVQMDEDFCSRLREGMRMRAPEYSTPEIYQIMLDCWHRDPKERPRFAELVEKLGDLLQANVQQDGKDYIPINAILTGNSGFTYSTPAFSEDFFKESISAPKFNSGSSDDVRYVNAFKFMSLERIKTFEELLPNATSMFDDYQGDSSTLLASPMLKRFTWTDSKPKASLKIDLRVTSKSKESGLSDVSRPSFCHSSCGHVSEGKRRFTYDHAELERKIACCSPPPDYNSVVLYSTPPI

[12] = biological target: Ephrin type-B receptor 4 (Homo sapiens) (UniProt P54760); assay: Inhibition of recombinant human N-terminal GST-tagged EphB4 (561 to end residues) expressed in baculovirus infected Sf21 insect cells at 2 uM using poly (Glu,Tyr) (4:1) as substrate relative to control
[13] = biological target: MAP kinase-activated protein kinase 5 (Homo sapiens) (UniProt Q8IW41); assay: Inhibition of recombinant human N-terminal His6-tagged full-length PRAK expressed in baculovirus infected Sf21 insect cells at 2 uM using PRAK substrate peptide relative to control
Chain of MAP kinase-activated protein kinase 5 (Homo sapiens) (Q8IW41 whole entry): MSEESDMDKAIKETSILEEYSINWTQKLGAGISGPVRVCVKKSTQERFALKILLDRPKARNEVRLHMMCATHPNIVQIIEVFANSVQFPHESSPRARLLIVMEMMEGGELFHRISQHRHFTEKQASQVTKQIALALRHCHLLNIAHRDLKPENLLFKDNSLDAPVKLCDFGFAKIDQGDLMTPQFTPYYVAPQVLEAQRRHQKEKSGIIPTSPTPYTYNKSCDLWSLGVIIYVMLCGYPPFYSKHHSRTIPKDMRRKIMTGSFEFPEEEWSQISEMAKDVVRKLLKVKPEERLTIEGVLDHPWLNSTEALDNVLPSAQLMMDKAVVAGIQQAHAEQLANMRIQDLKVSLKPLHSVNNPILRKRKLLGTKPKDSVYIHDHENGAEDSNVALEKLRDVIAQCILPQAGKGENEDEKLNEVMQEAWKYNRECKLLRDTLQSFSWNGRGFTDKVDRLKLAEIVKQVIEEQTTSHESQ

[14] = biological target: Tyrosine-protein kinase Fyn (Homo sapiens) (UniProt P06241); assay: Inhibition of recombinant human N-terminal His6-tagged full-length FYN expressed in baculovirus infected Sf21 insect cells at 2 uM using Src peptide as substrate relative to control
[15] = biological target: Tyrosine-protein kinase ABL1 (Homo sapiens) (UniProt P00519); assay: Inhibition of recombinant N-terminal His6-tagged human ABL (27 to end residues) expressed in baculovirus infected Sf21 insect cells at 2 uM using Abltide as substrate relative to control
[16] = biological target: ALK tyrosine kinase receptor (Homo sapiens) (UniProt Q9UM73); assay: Inhibition of recombinant N-terminal His6-tagged human ALK (1058 to end residues) expressed in baculovirus infected Sf21 insect cells at 2 uM using IGF-1Rtide as substrate relative to control
[17] = biological target: Ribosomal protein S6 kinase alpha-5 (Homo sapiens) (UniProt O75582); assay: Inhibition of recombinant human N-terminal His6-tagged MSK1 (2 to end residues) expressed in baculovirus infected Sf21 insect cells at 2 uM using Crosstide as substrate relative to control
[18] = biological target: Receptor-interacting serine/threonine-protein kinase 2 (Homo sapiens) (UniProt O43353); assay: Inhibition of recombinant human N-terminal His6-tagged RIPK2 (1 to 299 residues) expressed in baculovirus infected Sf21 insect cells at 2 uM using MBP as substrate relative to control
[19] = biological target: Tyrosine-protein kinase Fes/Fps (Homo sapiens) (UniProt P07332); assay: Inhibition of recombinant human N-terminal His6-tagged FES (561 to end residues) expressed in baculovirus infected Sf21 insect cells at 2 uM using poly (Glu,Tyr) (4:1) as substrate relative to control
[20] = biological target: Tyrosine-protein kinase receptor UFO (Homo sapiens) (UniProt P30530); assay: Inhibition of recombinant N-terminal His6-tagged human AXL (473 to end residues) expressed in Sf21 insect cells at 2 uM using Axl-tide as substrate relative to control
Chain of Tyrosine-protein kinase receptor UFO (Homo sapiens) (P30530 whole entry): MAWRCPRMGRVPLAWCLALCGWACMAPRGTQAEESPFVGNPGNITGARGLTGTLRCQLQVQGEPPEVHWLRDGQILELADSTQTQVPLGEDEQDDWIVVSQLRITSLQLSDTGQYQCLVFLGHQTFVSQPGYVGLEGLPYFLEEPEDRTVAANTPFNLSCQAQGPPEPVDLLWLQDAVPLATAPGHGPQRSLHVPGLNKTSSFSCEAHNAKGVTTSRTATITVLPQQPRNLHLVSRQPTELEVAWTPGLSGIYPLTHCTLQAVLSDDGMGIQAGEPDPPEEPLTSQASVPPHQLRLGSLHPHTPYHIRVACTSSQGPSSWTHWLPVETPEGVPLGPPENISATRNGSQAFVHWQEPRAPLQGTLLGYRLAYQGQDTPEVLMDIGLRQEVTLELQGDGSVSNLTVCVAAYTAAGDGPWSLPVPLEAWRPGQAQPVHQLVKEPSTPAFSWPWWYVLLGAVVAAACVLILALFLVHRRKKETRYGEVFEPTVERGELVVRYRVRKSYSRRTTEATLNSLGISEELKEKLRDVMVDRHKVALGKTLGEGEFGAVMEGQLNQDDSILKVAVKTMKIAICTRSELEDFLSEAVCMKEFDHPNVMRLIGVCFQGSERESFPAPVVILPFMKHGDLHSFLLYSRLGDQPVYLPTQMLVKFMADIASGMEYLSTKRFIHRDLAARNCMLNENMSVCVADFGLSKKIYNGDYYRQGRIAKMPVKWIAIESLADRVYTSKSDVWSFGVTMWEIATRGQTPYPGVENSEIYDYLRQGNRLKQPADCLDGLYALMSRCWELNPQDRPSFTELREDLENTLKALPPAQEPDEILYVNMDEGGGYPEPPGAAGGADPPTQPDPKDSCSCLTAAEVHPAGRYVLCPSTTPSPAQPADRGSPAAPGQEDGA

[21] = biological target: Serine/threonine-protein kinase N2 (Homo sapiens) (UniProt Q16513); assay: Inhibition of PRK2 (unknown origin) at 2 uM relative to control
Chain of Serine/threonine-protein kinase N2 (Homo sapiens) (Q16513 whole entry, looked up): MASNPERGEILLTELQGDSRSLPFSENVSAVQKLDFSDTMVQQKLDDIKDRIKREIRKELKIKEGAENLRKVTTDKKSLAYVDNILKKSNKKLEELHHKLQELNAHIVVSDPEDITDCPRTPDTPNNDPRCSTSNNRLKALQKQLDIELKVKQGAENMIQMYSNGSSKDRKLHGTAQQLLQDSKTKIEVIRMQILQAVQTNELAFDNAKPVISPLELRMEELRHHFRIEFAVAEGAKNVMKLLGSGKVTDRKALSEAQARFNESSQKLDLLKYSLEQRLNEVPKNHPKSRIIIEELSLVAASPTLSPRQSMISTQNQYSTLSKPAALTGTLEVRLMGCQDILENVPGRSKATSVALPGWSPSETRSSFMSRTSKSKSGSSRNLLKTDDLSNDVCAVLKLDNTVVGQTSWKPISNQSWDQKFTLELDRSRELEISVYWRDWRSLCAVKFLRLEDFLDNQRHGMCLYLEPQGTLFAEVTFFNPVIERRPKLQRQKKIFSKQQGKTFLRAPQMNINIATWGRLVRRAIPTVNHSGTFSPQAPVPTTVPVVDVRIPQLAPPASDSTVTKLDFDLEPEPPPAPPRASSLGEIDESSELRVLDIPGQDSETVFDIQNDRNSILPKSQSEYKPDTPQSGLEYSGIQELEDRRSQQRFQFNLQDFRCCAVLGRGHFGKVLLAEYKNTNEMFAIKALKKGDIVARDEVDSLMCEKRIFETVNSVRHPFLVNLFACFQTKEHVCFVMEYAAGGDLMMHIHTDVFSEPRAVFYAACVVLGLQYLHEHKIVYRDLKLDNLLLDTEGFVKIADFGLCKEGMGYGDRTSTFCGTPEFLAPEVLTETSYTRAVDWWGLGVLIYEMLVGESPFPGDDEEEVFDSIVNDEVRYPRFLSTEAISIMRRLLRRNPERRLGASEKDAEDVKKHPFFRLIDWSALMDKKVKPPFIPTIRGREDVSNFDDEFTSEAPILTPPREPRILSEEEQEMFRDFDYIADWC

[22] = biological target: Angiopoietin-1 receptor (Homo sapiens) (UniProt Q02763); assay: Inhibition of recombinant human N-terminal His6-tagged TIE2 (771 to end residues) expressed in baculovirus infected Sf21 insect cells at 2 uM using poly (Glu4-Tyr) (4:1) as substrate relative to control
[23] = biological target: Protein kinase C theta type (Homo sapiens) (UniProt Q04759); assay: Inhibition of recombinant human full-length C-terminal His6-tagged PKCtheta expressed in Sf21 insect cells at 2 uM using Histone H1 as substrate relative to control
[24] = biological target: High affinity nerve growth factor receptor (Homo sapiens) (UniProt P04629); assay: Inhibition of recombinant human N-terminal His6-tagged TRKA (440 to end residues) expressed in baculovirus infected Sf21 insect cells at 2 uM using KKKSPGEYVNIEFG as substrate relative to control
Chain of High affinity nerve growth factor receptor (Homo sapiens) (P04629 33-796 limits assumed): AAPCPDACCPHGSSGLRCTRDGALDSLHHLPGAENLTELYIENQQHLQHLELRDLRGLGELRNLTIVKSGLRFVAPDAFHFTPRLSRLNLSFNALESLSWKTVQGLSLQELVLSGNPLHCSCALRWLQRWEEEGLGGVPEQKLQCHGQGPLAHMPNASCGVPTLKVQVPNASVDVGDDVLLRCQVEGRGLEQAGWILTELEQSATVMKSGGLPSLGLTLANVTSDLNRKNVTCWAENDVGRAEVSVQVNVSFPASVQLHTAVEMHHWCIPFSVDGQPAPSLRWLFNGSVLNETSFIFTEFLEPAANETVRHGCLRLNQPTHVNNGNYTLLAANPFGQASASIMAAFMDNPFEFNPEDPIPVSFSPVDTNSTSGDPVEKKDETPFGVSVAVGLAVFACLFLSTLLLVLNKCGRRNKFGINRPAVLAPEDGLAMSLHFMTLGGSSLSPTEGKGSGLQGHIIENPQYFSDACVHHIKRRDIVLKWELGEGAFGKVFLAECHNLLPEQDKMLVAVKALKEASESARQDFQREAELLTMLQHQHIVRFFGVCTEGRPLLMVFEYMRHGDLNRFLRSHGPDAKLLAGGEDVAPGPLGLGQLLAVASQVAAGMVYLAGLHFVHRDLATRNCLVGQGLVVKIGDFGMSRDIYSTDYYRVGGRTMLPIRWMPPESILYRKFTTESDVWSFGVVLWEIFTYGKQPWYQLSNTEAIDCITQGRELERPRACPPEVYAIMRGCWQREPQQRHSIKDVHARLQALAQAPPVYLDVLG

Homo sapiens = species: Homo sapiens; assay: Selectivity ratio of IC50 for inhibition of recombinant human N-terminal GST/His-tagged PDE3A (669 to 1141 residues) expressed in baculovirus infected Sf9 insect cells to IC50 for inhibition of c-MET in human SNU-5 cells
[25] = biological target: Serine/threonine-protein kinase Nek2 (Homo sapiens) (UniProt P51955); assay: Inhibition of recombinant human N-terminal His6-tagged NEK2 expressed in baculovirus infected Sf21 insect cells at 2 uM using MBP as substrate relative to control
Chain of Serine/threonine-protein kinase Nek2 (Homo sapiens) (P51955 whole entry): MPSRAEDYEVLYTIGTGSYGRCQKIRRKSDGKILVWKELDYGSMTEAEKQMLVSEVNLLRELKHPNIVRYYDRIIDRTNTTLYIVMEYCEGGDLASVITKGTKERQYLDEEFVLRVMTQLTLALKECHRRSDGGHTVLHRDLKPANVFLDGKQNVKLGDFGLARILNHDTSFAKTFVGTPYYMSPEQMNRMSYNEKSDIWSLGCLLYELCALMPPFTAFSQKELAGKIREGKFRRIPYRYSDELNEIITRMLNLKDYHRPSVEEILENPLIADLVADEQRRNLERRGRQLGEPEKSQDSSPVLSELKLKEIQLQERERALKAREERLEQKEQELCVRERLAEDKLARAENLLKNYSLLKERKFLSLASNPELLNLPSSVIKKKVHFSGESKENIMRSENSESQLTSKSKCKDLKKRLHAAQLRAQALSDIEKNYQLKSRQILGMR

`C[C@@H](c1ccc2ncccc2c1)c1nnc2sc(-c3cnn(C)c3)nn12` gave an inhibition [1] of under 50%, an inhibition [2] of under 50% and an inhibition [3] of under 50%. It also gave an inhibition [4] of under 50%, an inhibition [5] of under 50% and an inhibition [6] of under 50%. It also gave an inhibition [7] of under 50%, a Ki [8] of over 4 µM and an inhibition [9] of under 50%. It also gave an inhibition [10] of under 50%, an inhibition [11] of under 50% and an inhibition [12] of under 50%. It also gave an inhibition [13] of under 50%, an inhibition [14] of under 50% and an inhibition [15] of under 50%. The inhibition [16] was under 50%, the inhibition [17] was under 50% and the inhibition [18] was under 50%. The inhibition [19] was under 50%, the inhibition [20] was under 50% and the inhibition [21] was under 50%. It also gave an inhibition [22] of under 50%, an inhibition [23] of under 50% and an inhibition [24] of under 50%. The Ratio IC50 (Homo sapiens) was 25 and the inhibition [25] was under 50%.
